Results taken from ChEMBL document CHEMBL5728478, “Factor XIIa inhibitors” (2021).

Target: T1, Coagulation factor XII (Homo sapiens, UniProt P00748)
T1 sequence (P00748 whole entry): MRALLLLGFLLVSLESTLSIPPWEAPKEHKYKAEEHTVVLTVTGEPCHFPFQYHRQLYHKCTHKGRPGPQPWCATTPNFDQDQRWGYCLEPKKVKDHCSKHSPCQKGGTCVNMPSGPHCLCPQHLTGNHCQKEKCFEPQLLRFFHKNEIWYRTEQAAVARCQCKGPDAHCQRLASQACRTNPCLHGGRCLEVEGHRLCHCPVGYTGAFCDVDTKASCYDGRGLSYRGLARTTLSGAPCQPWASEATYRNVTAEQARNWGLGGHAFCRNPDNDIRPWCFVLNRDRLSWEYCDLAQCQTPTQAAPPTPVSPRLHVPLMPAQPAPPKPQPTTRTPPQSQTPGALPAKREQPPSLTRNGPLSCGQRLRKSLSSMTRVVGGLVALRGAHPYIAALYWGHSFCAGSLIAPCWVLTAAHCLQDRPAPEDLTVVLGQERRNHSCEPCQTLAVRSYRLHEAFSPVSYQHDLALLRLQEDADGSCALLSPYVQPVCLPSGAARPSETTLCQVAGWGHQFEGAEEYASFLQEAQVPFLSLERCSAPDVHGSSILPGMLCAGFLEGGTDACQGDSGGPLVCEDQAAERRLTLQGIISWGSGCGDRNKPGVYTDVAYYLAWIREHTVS
Experiment: Factor XIIa assay: Factor XIIa activity determinations were made in 50 mM HEPES buffer containing 150 mM NaCl, 5 mM CaCl2, and 0.1% PEG 8000 (polyethylene glycol; JT Baker or Fisher Scientific) at pH 7.4. Determinations were made using purified human Factor XIIa at a final concentration of […] (Sekisui Diagnostics) and the synthetic substrate, n-Acetyl-Lys-Pro-Arg-AFC, TFA salt (Sigma # C6608) at a concentration of 100 μM.

Row | IC50 | SMILES
1 | 5 nM | C[N+](C)(C)CCCC[C@@H](NC1CCCCC1)C(=O)N1CC[C@@H](NC(=O)N2CCC3(CC2)CC3)[C@@H](C(=O)NCc2ccccc2)C1
2 | 82.9 nM | O=C(NCc1cccs1)[C@H]1CN(C(=O)C(CC2CCNCC2)NC2CCCCC2)CC[C@H]1NC(=O)N1CCC2(CC1)CC2 (some centres not stated)
